Results on 111 compounds are retold here after a melting point compilation (Tetko et al.).

The melting point is the temperature of the solid-liquid transition. Compound `CN1C(CCl)Nc2cc(Cl)c(S(N)(=O)=O)cc2S1(=O)=O` (stereo unspecified) had a melting point of 225 °C.

`S=C=NC(c1ccccc1)(c1ccccc1)c1ccccc1`: the melting point fell in the range of 138 to 140 °C.

As for `N#Cc1c(C(F)(F)F)cc(-c2cccnc2)[nH]c1=O`, the melting point lay within 280 to 281 °C.

As for `CCCCc1nc(CO)c(Cl)[nH]1`, the melting point was in the range of 150 to 152 °C.

Take `O=C1NCCN1c1ncc([N+](=O)[O-])s1`: the melting point came to 261 °C.

The compound `Cc1cc(C)n2nc(N)c(/N=N/c3cccc([N+](=O)[O-])c3)c2n1` had a melting point of 263 °C.

`CCC(C)CC(=O)O` (racemic): the melting point was -41 °C.

The compound `CC(C)(C)c1cc([N+](=O)[O-])cc([N+](=O)[O-])c1O` gave a melting point of 126 °C.

With `O=C(Cl)c1ccc(Cl)c(Cl)c1`, the melting point came to 32 °C.

Regarding `COC(=O)c1cc(Cl)nc(Cl)c1`, the melting point fell in the range of 82 to 83 °C.

Compound `CC(C)(C)OC(=O)N1CCC(OCC(=O)NC2CC2)CC1` yielded a melting point of 86 °C.

`COC(=O)C1(Br)CCC(Br)(C(=O)OC)CC1` (stereo unspecified) returned a melting point of 148 to 150 °C.

For the compound `Clc1ccc(Cc2c(N=Cc3ccc(OCc4ccccc4)cc3)n[nH]c2N=Cc2ccc(OCc3ccccc3)cc2)cc1`, the melting point was in the range of 145 to 147 °C.

In turn, `Sc1nnc2ccccn12` returned a melting point of 213 to 214 °C.

`O=[N+]([O-])c1ncccc1Br` gave a melting point of 104 °C.

Take `COc1c(Cl)c(Cl)c(Cl)c(Cl)c1Cl`: the melting point turned out to be 108 °C.

On to `CC(=O)OCC(=O)C1CCC2C3CCC4CC(O)CCC4(C)C3C(=O)CC12C` (stereo unspecified), for which the melting point came out at 176 °C.

As for `OCc1ccccc1-c1ccco1`, the melting point worked out at 72 °C.

Take `CC(=O)C=CC=Cc1ccccc1`: the melting point is 68 °C.

As for `CC12CCC(C(=CC(N)=O)C1=O)C2(C)C` (stereo unspecified), the melting point was determined as 152 °C.

`COc1ccc(P2(=S)Nn3c(nnc3C(F)(F)F)S2)cc1` (stereo unspecified) returned a melting point of 211 °C.

Compound `O=Cc1ccc(-c2ccccn2)s1` yielded a melting point of 122 to 123 °C.

`CCOC(=O)C(=O)c1ccc(Br)s1` registered a melting point of 70 to 71 °C.

Regarding `O=C(C=Cc1ccc(OCCCl)cc1)c1ccc(OCCCl)cc1`, the melting point was 83 °C.

In turn, `Cc1ccccc1NC(N)=S` had a melting point of 162 °C.

`O=C1C(Cl)=C(NC(=O)C(Cl)Cl)C(=O)c2ccccc21` came in with a melting point of 212 °C.

On to `OCCCCCCCCl`, for which the melting point is 11 °C.

In the case of `O=C(O)c1nnn(Cc2ccccc2)c1C(=O)O`, the melting point was 180 °C.

Consider `O=C1c2ccccc2C(=O)c2c([N+](=O)[O-])ccc(O)c21`, for which the melting point lay within 273 to 275 °C.

Compound `CCCc1ccc(C(C)=NO)cc1` displayed a melting point of 48 to 50 °C.

Consider `Cc1cccc2c1C(=O)NC2=O`, for which the melting point is 183 to 189 °C.

`Cc1noc(-c2ccccc2CBr)n1` came in with a melting point of 64 to 67 °C.

As to `O=c1cc[nH]c2c1cnn2-c1ccccc1`, the melting point was 166 to 168 °C.

In turn, `CC(C)(C)OC(=O)N1CCN(c2ccccc2C(=O)O)CC1` came in with a melting point of 165 to 166 °C.

`CCOC(=O)Cc1nc(O)cs1` showed a melting point of 153 to 155 °C.

Turning to `CC(=O)N[C@@H](CCCCN)C(=O)O`, the melting point was in the range of 256 to 258 °C.

The compound `Cn1ncc(C(N)=O)c1N` displayed a melting point of 231 to 232 °C.

In the case of `CNC(C)(C)C(=O)O`, the melting point turned out to be 300 °C.

With `COc1ccc(C(=O)c2ccccc2C(=O)O)cc1`, the melting point is 146 °C.

`CCOC(=O)c1sc(SC)c(S(C)(=O)=O)c1N` displayed a melting point of 111 to 113 °C.

On to `O=C(Cl)c1csc(Cc2c(Cl)cccc2Cl)n1`, for which the melting point was found to be 104 °C.

`C=CC(C)O` (stereo unspecified): the melting point is -100 °C.

Consider `CC(=O)Oc1cc(-c2ccccc2)cc2ccccc12`, for which the melting point came out at 60 °C.

On to `Cc1c(Cl)c(=O)oc2cc(OP(=O)(OCCCl)OCCCl)ccc12`, for which the melting point amounted to 91 °C.

`CNCCCCCCN(C)N(O)N=O` registered a melting point of 102 to 108 °C.

Regarding `CC(Cl)C(=O)Cl` (stereo unspecified), the melting point is -71 °C.

On to `NC(=O)c1ccc(CC(=O)c2ccc(Cl)cc2)cc1`, for which the melting point is 221 to 223 °C.

`O=C(Oc1c(F)c(F)c(F)c(F)c1F)c1ccc(OC2CCOCC2)cc1` yielded a melting point of 111 to 114 °C.

As to `Cc1ccc(-c2cc(N)[nH]n2)cc1`, the melting point lay within 153 to 154 °C.

The compound `CCCC(=O)Oc1c[nH]c2ccc(Br)c(Cl)c12` returned a melting point of 91 to 93 °C.

`Brc1cccc2c1Oc1ccccc1O2`: the melting point was found to be 104 °C.

With `Cc1cccc(C)c1NC(N)=S`, the melting point was determined as 195 °C.

For the compound `CCCCCCl`, the melting point is -60 °C.

Take `O=C(O)C1CCN(c2ncnc3ccsc23)CC1`: the melting point fell in the range of 248 to 249 °C.

Compound `Cn1c(/C(C#N)=N/Nc2cccc(O)c2)nc2ccccc21` gave a melting point of 285 °C.

`CC(=O)Nc1nc(O)c2nc[nH]c2n1`: the melting point is 260 °C.

On to `COC1=C(OC)/C(=C/C2CCC=CC23OC(=O)C(OC)=C3OC)OC1=O` (stereo unspecified), for which the melting point was in the range of 118 to 120 °C.

Compound `CNC(=O)Oc1ccccc1C(C)C` showed a melting point of 94 °C.

In turn, `CCOC(=O)c1nn(-c2ccc(C)cc2)c(C)c1C(=O)C1=NOC2C(=O)N(c3ccc(Br)cc3)C(=O)C12` (stereo unspecified) had a melting point of 238 °C.

On to `Cc1ccc(S(=O)(=O)Nc2ccccc2C)cc1`, for which the melting point was 110 °C.

Compound `CC(Cc1ccccc1)(C(=O)O)C(=O)O` gave a melting point of 132 °C.

Compound `O=C(NC1CCCCC1)C(Br)(C(F)(F)F)C(F)(F)F` registered a melting point of 87 °C.

In turn, `NC(=S)Nc1ccc(O)cc1` had a melting point of 214 °C.

As to `CC(C)(C)NC(=O)[C@@H]1CC2CCCCC2CN1` (stereo partly specified), the melting point fell in the range of 115 to 117 °C.

In turn, `COc1ccc(NC(=O)/C(C)=N\NC(N)=O)cc1` registered a melting point of 226 to 228 °C.

With `CCCCCCCCCCCCCCCCCC[Si](C)(C)Cl`, the melting point amounted to 30 °C.

Regarding `Cc1cc2nc3c(=O)[nH]c(=O)nc-3n(C)c2cc1C`, the melting point was determined as 320 °C.

Compound `CC1CN(C2CCCCCCCCCCC2)CC(C)O1` (stereo unspecified) gave a melting point of 71 °C.

On to `COC(=O)c1ccc(N2N=N2)cc1`, for which the melting point came out at 40 °C.

`CC(C)SSC(C)C`: the melting point was -69 °C.

`CCO[Si](CCCNC(=O)c1ccc([N+](=O)[O-])cc1)(OCC)OCC` showed a melting point of 55 °C.

`CCCCCCCCCCCCCC(O)CC` (stereo unspecified) came in with a melting point of 50 °C.

For the compound `CC12CC(c3ccccc3)C([N+](=O)[O-])C(O1)c1ccccc1N2` (stereo unspecified), the melting point lay in the range of 193 to 194 °C.

`C1COCO1` yielded a melting point of -26 °C.

`NS(=O)(=O)c1ccc(SCCCCO)s1` yielded a melting point of 48.5 °C.

As for `CCCCCCCCCCCC(=O)OCCOCCO`, the melting point worked out at 17.5 °C.

In the case of `Cc1nc(Cl)c2c(C)c(C)sc2n1`, the melting point fell in the range of 115 to 116 °C.

Compound `Cc1cccc(C)c1N(C(=O)CCl)C1CCOC1=O` (stereo unspecified) registered a melting point of 146 °C.

In turn, `CC(=O)C1CCC2C3CCC4=CC(=O)CCC4(C)C3CCC12C` (stereo unspecified) displayed a melting point of 128 to 132 °C.

In turn, `CC1(C)OC(c2ccco2)CN1C(=O)C(Cl)Cl` (stereo unspecified) returned a melting point of 97 °C.

In turn, `CCOC(=O)C(C(=O)OCC)C(C(=O)OCC)C(=O)OCC` yielded a melting point of 77 °C.

Regarding `CN(C(=O)C(F)(F)C(F)(F)C(F)(F)C(F)(F)C(F)(F)C(F)(F)C(F)(F)C(F)(F)F)C1CCCCC1`, the melting point was determined as 57 °C.

With `COc1ccc2cc(C(C)O)ccc2c1` (racemic), the melting point was in the range of 111 to 114 °C.

`CC1(C)OC2CC3C4CCC5=CC(=O)C=CC5(C)C4(F)C(O)CC3(C)C2(C(=O)CO)O1` (stereo unspecified) yielded a melting point of 293 °C.

Regarding `C#CCCCCCCCCCCCCCCCCCC`, the melting point came out at 36 °C.

Regarding `Nc1ccc(C(F)(F)F)cc1[N+](=O)[O-]`, the melting point stood at 107 °C.

Compound `CCOC(=O)c1cc2cc(C=O)c(N)cc2[nH]c1=O` had a melting point of 154 to 157 °C.

The compound `O=C(O)c1c(C(F)(F)F)ccnc1F` yielded a melting point of 92 °C.

In turn, `O=S(=O)(Cl)Cc1ccc(Br)cc1` had a melting point of 117 to 121 °C.

In turn, `O=Cc1ccccc1-c1cccnc1` returned a melting point of 68 to 69 °C.

For the compound `O=C(Cl)c1nccs1`, the melting point was in the range of 54 to 58 °C.

For the compound `O=C(NC(=O)c1c(F)cccc1F)Nc1ccc(OC(F)(F)C(F)OC(F)(F)F)c(Cl)c1` (stereo unspecified), the melting point is 178 °C.

In turn, `O=[N+]([O-])c1cccc(-c2nnc3n2NC(c2ccccc2O)S3)c1` (stereo unspecified) displayed a melting point of 210 °C.

`CC(c1ccccc1)C(C(=O)O)c1ccccc1` (stereo unspecified) registered a melting point of 129 °C.

Regarding `Cc1ccncc1C(=O)NN`, the melting point was 177 °C.

With `COC(=O)C(=O)C1CCc2cc(OC)ccc2C1=O` (stereo unspecified), the melting point is 71 °C.

For `Cc1ccc2nc(C)c(C)nc2c1`, the melting point was found to be 93 °C.

In turn, `COc1ccc(-c2cc3nc(-c4cccs4)cc(C(F)(F)F)n3n2)cc1` returned a melting point of 201 °C.

Turning to `Brc1nncs1`, the melting point is 70 to 73 °C.

`CC(C)(C)OC(=O)N1OC1c1ccc(C#N)cc1` (stereo unspecified) registered a melting point of 57 to 63 °C.

As for `Nc1ccc(Cl)cn1`, the melting point turned out to be 137 °C.

With `N#Cc1ncccc1N1CCCCC1`, the melting point lay in the range of 67 to 69 °C.

As to `CN(C)c1ccc(O)cc1`, the melting point came out at 77 °C.

In the case of `CCc1cccc2c1CCCC2`, the melting point was -44.5 °C.

`CCOC(=O)C(C#N)=C1CC(SC)=C(C(=O)OCC)C(=N)N1c1ccc(OC)cc1` registered a melting point of 172 °C.

For `O=Cc1c(F)ccc(F)c1Cl`, the melting point was determined as 47 °C.

With `C#CCOc1ccc(Cc2ccc(O)cc2)cc1`, the melting point was found to be 60 °C.

`COc1ccc2c(c1)CC(CCC(=O)O)(CCC(=O)O)C2=O` returned a melting point of 151 °C.

With `Oc1ccc2c(c1)C13CCCCC1(O)C(C2)N(CC1CCC1)CC3` (stereo unspecified), the melting point is 216 °C.

Take `CCNc1nc(NC(C)C)nc(SC)n1`: the melting point worked out at 88 °C.

`Cc1cc(C)cc(S(=O)(=O)Cl)c1` displayed a melting point of 93 °C.
